# Data from ChEMBL document CHEMBL1152348, “Discovery of 3-aryl-5-aryl-1,2,4-oxadiazoles as a new series of apoptosis inducers. 2. Identification of more aqueous soluble analogs as potential anticancer agents” (Bioorg Med Chem Lett, 2009).
# Activity calls are given as the source filed them. The calls are words filed in the database; no cut-off is given here.
# Assays:
# [1] = system: T47D; experiment: Induction of apoptosis in human T47D cells assessed as caspase activation after 48 hrs; assay type: functional, cell-based
# [2] = system: DLD-1; experiment: Induction of apoptosis in human DLD1 cells assessed as caspase activation after 48 hrs; assay type: functional, cell-based; details: DLD-1, 48 h
# [3] = system: NCI-H1299; experiment: Induction of apoptosis in human H1299 cells assessed as caspase activation after 48 hrs; assay type: functional, cell-based; details: NCI-H1299, 48 h
# [4] = Aqueous solubility in dextrose 5% in water; assay type: physicochemical
# [5] = Solubility in ethanol/cremophor EL/D5W solution; assay type: physicochemical
# [6] = system: T47D; experiment: Growth inhibition of human T47D cells after 48 hrs; assay type: functional
# [7] = Growth inhibition of human H1299 cells after 48 hrs; assay type: functional; details: NCI-H1299, 48 h
# [8] = Solubility in DMSO/ethanol/cremophor EL/D5W solution; assay type: physicochemical
# [9] = system: MX1; experiment: Antitumor activity against human MX1 cells xenografted in Crl:Nu/Nu-nuBR mouse assessed as inhibition of tumor growth at 20 mg/kg, iv daily once for day 1 to 5 and 8 to 12; assay type: functional, organism-based; set-up: dose 20 mg/kg
# [10] = system: Mus musculus; experiment: Toxicity in Crl:Nu/Nu-nuBR mouse assessed as decrease of body weight at 20 mg/kg, iv daily once for day 1 to 5 and 8 to 12; assay type: organism-based; set-up: dose 20 mg/kg, route intravenous; scale not given: the % may be the effect or the level left; details: in vivo
Compound,EC50 [1] [nM],EC50 [2] [nM],EC50 [3] [nM],GI50 [6] [nM],GI50 [7] [nM],further results
Cc1cc(Cl)ccc1-c1noc(-c2sccc2Cl)n1,910,380,> 10000,,,
Cc1cc(-c2noc(-c3sccc3Cl)n2)ccc1Cl,1700,590,> 10000,,,
Clc1ccc(-c2noc(-c3occc3Br)n2)c(CBr)c1,2200,,2300,,,
O=P([O-])([O-])OCc1cc(Cl)ccc1-c1noc(-c2occc2Br)n1.[Na+].[Na+],,,,,,solubility [4]: 10000 µg/mL
CC[C@]1(O)C[C@@H]2CN(CCc3c([nH]c4ccccc34)[C@@](C(=O)OC)(c3cc4c(cc3OC)N(C)[C@H]3[C@@](O)(C(=O)OC)[C@H](OC(C)=O)[C@]5(CC)C=CCN6CC[C@]43[C@@H]65)C2)C1 [VINBLASTINE],,160,82,,,
Cc1cc(Cl)cnc1-c1noc(-c2occc2Br)n1,940,1200,> 10000,660,> 10000,solubility [5]: 3800 µg/mL
OCc1cc(Cl)ccc1-c1noc(-c2occc2Br)n1,2900,,> 10000,500,> 10000,solubility [5]: 4000 µg/mL
Nc1cc(Cl)ccc1-c1noc(-c2sccc2Cl)n1,3100,1100,> 10000,,,
COc1cc2c(c(OC)c1OC)-c1ccc(OC)c(=O)cc1[C@@H](NC(C)=O)CC2 [COLCHICINE],,180,,140,63,
CC(=O)O[C@H]1C(=O)[C@@]2(C)[C@H]([C@H](OC(=O)c3ccccc3)[C@]3(O)C[C@H](OC(=O)[C@H](O)[C@@H](NC(=O)c4ccccc4)c4ccccc4)C(C)=C1C3(C)C)[C@]1(OC(C)=O)CO[C@@H]1C[C@@H]2O [PACLITAXEL],,54,98,26,23,
Clc1ccc(-c2noc(-c3sccc3Cl)n2)cc1,1200,440,> 10000,190,> 10000,
CN(C)c1cc(-c2noc(-c3sccc3Cl)n2)ccc1Cl,2100,540,> 10000,,,
Clc1ccc(-c2noc(-c3sccc3Cl)n2)cc1Cl,1400,370,> 10000,,,
Cc1cc(Cl)ccc1-c1noc(-c2occc2Br)n1,1100,710,> 10000,130,> 10000,solubility [8]: 4800 µg/mL; inhibition [9]: Active; Activity [10]: < 10%
O=P(O)(O)OCc1cc(Cl)ccc1-c1noc(-c2occc2Br)n1,> 10000,,> 10000,,,
Nc1cc(-c2noc(-c3sccc3Cl)n2)ccc1Cl,2400,580,> 10000,,,
Clc1ccc(-c2noc(-c3sccc3Cl)n2)c(CBr)c1,4500,1100,8600,,,
CN(C)CCNc1cc(-c2noc(-c3sccc3Cl)n2)ccc1Cl,> 10000,> 10000,> 10000,,,
